Experimental data as given in patent US11116757B2 (priority 2015, dated 2021).
Where two headings read alike, the source gives them in different places.

Target: DCN1-UBC12 interaction (Homo sapiens (Human), UniProt Q96GG9)
Assay: biochemical
Format: binding
[1] = Table 4, commercial compounds, read-out: TR-FRET IC50
[2] = Table 7, commercial compounds, read-out: TR-FRET IC50
[3] = Table 6, commercial compounds, read-out: TR-FRET IC50

DCN1-UBC12 interaction, sequence (Q96GG9 60-248 limits assumed): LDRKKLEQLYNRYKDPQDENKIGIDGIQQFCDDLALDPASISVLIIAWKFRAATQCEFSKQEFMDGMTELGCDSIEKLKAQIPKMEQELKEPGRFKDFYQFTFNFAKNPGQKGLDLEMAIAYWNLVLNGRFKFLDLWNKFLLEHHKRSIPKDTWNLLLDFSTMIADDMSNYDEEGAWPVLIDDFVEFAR

Row | Structure (SMILES) | IC50 (read-out: TR-FRET IC50) | other results
1 | CC(=O)N1CCC(N(Cc2ccco2)C(=O)Nc2cccc(C(F)(F)F)c2)CC1 [B10] | 20.2 µM | 
2 | CCCC(C)N1CCC(N(Cc2ccccc2)C(=O)Nc2ccc(C(N)=O)cc2)CC1 (stereo not shown) [A258] | > 62.2 µM | 
3 | O=C(Nc1cccc(C(F)(F)F)c1)C1CCN(C(=O)c2ccc(F)cc2)CC1 [C2] |  | IC50 [1]: 8.84 µM
4 | CCCC(C)N1CCC(N(Cc2ccccc2)C(=O)Nc2ccc(C(C)(C)C)cc2)CC1 (stereo not shown) [A100] |  | IC50 (TR-FRET IC50): 1.41 µM
5 | CCCC(C)N1CCC(N(Cc2ccccc2)C(=O)Nc2ccccc2OC(F)(F)F)CC1 (stereo not shown) [A191] | 44.9 µM | 
6 | O=C(Nc1ccccc1C(F)(F)F)NC1CCN(Cc2ccccc2)CC1 [B103] | > 70.7 µM | 
7 | CCc1cccc(NC(=O)C2CCN(C(C)=O)CC2)c1 [C32] |  | IC50 [1]: > 67.6 µM
8 | CCCC(C)N1CCC(N(Cc2ccccc2)C(=O)Nc2ccc(SC(F)(F)F)cc2)CC1 (stereo not shown) [A14] | 0.0853 µM | 
9 | COc1cc(C(=O)N2CCCC(c3nc4ccccc4s3)C2)cc(OC)c1OCC(N)=O (stereo not shown) [D24] | > 67.6 µM | 
10 | CCCC(C)N1CCC(N(Cc2ccccc2)C(=O)Nc2cc(S(F)(F)(F)(F)F)ccc2F)CC1 (stereo not shown) [A107] | 2.05 µM | 
11 | C#Cc1ccccc1CN1CCC(N(Cc2ccccc2)C(=O)Nc2cc(F)cc(C(F)(F)F)c2)CC1 [A123] | 1.13 µM | 
12 | COc1ccc(C2c3c(C)nn(C)c3NC(=O)C2NC(=O)c2ccccc2)cc1OC (stereo not shown) [F29] |  | IC50 [2]: > 67.6 µM
13 | O=C(c1ccc(F)cc1)N1CCCC(c2nc3ccccc3s2)C1 (stereo not shown) [D16] | > 48.7 µM | 
14 | COc1ccc(CN(C(=O)Nc2cc(C)ccc2C)C2CCN(C(C)=O)CC2)cc1 [B82] | > 67.6 µM | 
15 | O=C(Nc1cccc(C(F)(F)F)c1)C1CCN(C(=O)c2cccc(F)c2)CC1 [C10] |  | IC50 [1]: > 42.9 µM
16 | CCCC(C)N1CCC(N(Cc2ccccc2)C(=O)Nc2c(C(C)C)cccc2C(C)C)CC1 (stereo not shown) [A173] | 13.1 µM | 
17 | CCCCN1CCC(N(Cc2ccccc2)C(=O)Nc2cccc(F)c2)CC1 [A136] | 3.57 µM | 
18 | CCCC(C)N1CCC(N(Cc2ccccc2)C(=O)Nc2ccc(Cl)cc2C(=O)OC)CC1 (stereo not shown) [A266] | > 66.2 µM | 
19 | CCCC(C)N1CCC(N(Cc2ccccc2)C(=O)Nc2ccc(Oc3ccncc3)cc2)CC1 (stereo not shown) [A69] | 0.567 µM | 
20 | O=C(Nc1cccc(C(F)(F)F)c1)N1CCN(Cc2cccnc2)CC1 [B116] | > 74.8 µM | 
21 | CCCCN1CCC(N(Cc2ccc3c(c2)OCO3)C(=O)Nc2ccc(F)c(C(F)(F)F)c2)CC1 [A114] | 2.35 µM | 
22 | Cc1cccc(NC(=O)C2CCN(C(=O)c3cccc(F)c3)CC2)c1 [C44] |  | IC50 [1]: > 67.6 µM
23 | CCN(CC)CCN(CC)C(=O)c1cnn(-c2nccc(-c3cccs3)n2)c1COC [E22] |  | IC50 [3]: 54.9 µM

Row | Structure (SMILES) | IC50 (read-out: TR-FRET IC50) | other results
24 | CCCC(C)N1CCC(N(Cc2ccccc2)C(=O)Nc2cccc(C(=O)OC)c2)CC1 (stereo not shown) [A81] | 0.88 µM | 
25 | CCCC(C)N1CCC(N(Cc2ccccc2)C(=O)Nc2ccccc2F)CC1 (stereo not shown) [A295] | > 81.1 µM | 
26 | CCCCCN1CCC(N(Cc2ccccc2)C(=O)Nc2cc(F)cc(C(F)(F)F)c2)CC1 [A124] | 1.59 µM | 
27 | CCCC(C)N1CCC(N(Cc2ccccc2)C(=O)Nc2cc(C)cc(C)c2)CC1 (stereo not shown) [A98] | 1.38 µM | 
28 | CCCC(C)N1CCC(N(Cc2ccccc2)C(=O)Nc2ccc(Oc3ccccc3)c(C(F)(F)F)c2)CC1 (stereo not shown) [A75] | 0.731 µM | 
29 | O=C(Nc1ccc(Cl)c(Cl)c1)C1CCN(C(=O)c2ccco2)CC1 [C40] |  | IC50 [1]: > 67.6 µM
30 | CCCC(C)N1CCC(N(Cc2ccccc2)C(=O)Nc2ccc(OC)cc2OC)CC1 (stereo not shown) [A197] | > 111 µM | 
31 | CCOc1ccccc1NC(=O)N(C(C)C)C1CCN(C(C)=O)CC1 [B67] | > 67.6 µM | 
32 | Cc1ccc(C(=O)N2CCC(c3nc4ccccc4s3)CC2)cc1C [D17] | > 53.9 µM | 
33 | CCCCN1CCC(N(Cc2ccccc2)C(=O)Nc2ccc(C)c(Cl)c2)CC1 [A28] | 0.166 µM | 
34 | CCCC(C)N1CCC(N(Cc2ccc3c(c2)OCO3)C(=O)Nc2ccc(F)c(C(F)(F)F)c2)CC1 (stereo not shown) [A61] | 0.371 µM | 
35 | CCCCN1CCC(N(Cc2ccccc2)C(=O)Nc2cc(C(F)(F)F)cc(C(F)(F)F)c2)CC1 [A274] | > 68.2 µM | 
36 | O=C(Nc1cc(F)cc(C(F)(F)F)c1)N(Cc1ccccc1)C1CCN(CC2CCOC2)CC1 (stereo not shown) [A144] | 4.49 µM | 
37 | COc1ccc(NC(=O)C2CCN(C(=O)c3ccccc3C)CC2)c(OC)c1 [C21] |  | IC50 [1]: > 67.6 µM
38 | C=CC(=O)NCCN(C(=O)Nc1cccc(C(F)(F)F)c1)C1CCN(C(C)CCC)CC1 (stereo not shown) [drawing 835] | 33.8 µM | 
39 | CCc1ccc(C2c3c(C)nn(C)c3NC(=O)C2NC(=O)c2ccc(OC)c(OC)c2)cc1 (stereo not shown) [F24] |  | IC50 [2]: > 67.6 µM
40 | O=C(NC1CCN(Cc2ccccc2)CC1)NC1CCC2(CC1)OCCO2 [B26] | > 165 µM | 
41 | CCCC(C)N1CCC(N(Cc2ccccc2)C(=O)Nc2cccc(Cl)c2)CC1 (stereo not shown) [A35] |  | IC50 (TR-FRET IC50): 0.203 µM
42 | COCCN1CCN(C(=O)c2cnn(-c3nccc(-c4cccs4)n3)c2C2CC2)CC1 [E13] |  | IC50 [3]: 28.8 µM
43 | CCCC(C)N1CCC(N(Cc2ccccc2)C(=O)Nc2ccc(C)c([N+](=O)[O-])c2)CC1 (stereo not shown) [A36] | 0.206 µM | 
44 | CCCC(C)N1CCC(N(Cc2ccccc2)C(=O)Nc2ccc(OC)c(F)c2)CC1 (stereo not shown) [A109] | 2.2 µM | 
45 | CCN(CC)CCN(CC)C(=O)c1cnn(-c2ncc(C)c(-c3cccs3)n2)c1COC [E16] |  | IC50 [3]: 33.3 µM
46 | CCCCN1CCC(N(Cc2ccccc2)C(=O)Nc2cccc(C)c2)CC1 [A95] | 1.32 µM | 

Row | Structure (SMILES) | IC50 (read-out: TR-FRET IC50) | other results
47 | O=C(Nc1cccc(C(F)(F)F)c1)NC1CCN(Cc2cccc(F)c2)CC1 [A183, 1-(1-(3-Fluorobenzyl)Piperidin-4-yl)-3-(3-(Trifluoromethyl)Phenyl)Urea] | 21.9 µM | 
48 | O=C(Nc1ccn(Cc2ccccn2)n1)NC1CCN(Cc2ccccc2)CC1 [B33] | > 55.4 µM | 
49 | CCOc1ccc(C2c3c(C)nn(C)c3NC(=O)C2NC(=O)c2cccc(C)c2)cc1 (stereo not shown) [F23] |  | IC50 [2]: > 67.6 µM
50 | COc1cccc(C2c3c(C)nn(C)c3NC(=O)C2NC(=O)c2cccc(C)c2)c1 (stereo not shown) [F27] |  | IC50 [2]: > 67.6 µM
51 | Cc1cccc(NC(=O)C2CCN(C(=O)c3cccc4ccccc34)CC2)c1 [C63] |  | IC50 [1]: > 67.6 µM
52 | CCCC(C)N1CCC(N(Cc2ccccc2)C(=O)Nc2ccc(CN(C)C)cc2)CC1 (stereo not shown) [A236] | > 45.4 µM | 
53 | O=C(c1ccc(Cl)c(Cl)c1)N1CCC(c2nc3ccccc3s2)CC1 [D7] | 19.5 µM | 
54 | Cc1ccc(NC(=O)C2CCN(C(=O)c3ccccc3C)CC2)cc1C [C22] |  | IC50 [1]: > 67.6 µM
55 | Cc1cccc(C(=O)NC2C(=O)Nc3c(c(C)nn3C)C2c2cccc(F)c2)c1 (stereo not shown) [F15] |  | IC50 [2]: > 67.6 µM
56 | O=C(NCC(=O)N1CCC(c2nc3ccccc3s2)CC1)c1cccc(F)c1 [D23] | > 67.6 µM | 
57 | CCN(CC)CCN(C)C(=O)c1cnn(-c2ncc(C)c(-c3cccs3)n2)c1COC [E38] |  | IC50 [3]: > 67.6 µM
58 | O=C(Nc1cccc(SC(F)(F)F)c1)NC1CCN(Cc2ccccc2)CC1 [B8] | 16.6 µM | 
59 | CCc1ccccc1NC(=O)C1CCN(C(=O)c2ccc(F)cc2)CC1 [C67] |  | IC50 [1]: > 75.6 µM
60 | CCCC(C)N1CCC(N(Cc2ccccc2)C(=O)Nc2cc(C)cc(Cl)c2)CC1 (stereo not shown) [A99] | 1.41 µM | 
61 | CCCCN(C)C(=O)c1cnn(-c2ncc(C)c(-c3cccs3)n2)c1C [E42] |  | IC50 [3]: > 67.6 µM
62 | O=C(Nc1cc(F)cc(C(F)(F)F)c1)N(Cc1ccccc1)C1CCN(Cc2csc3ccccc23)CC1 [A212] | > 22.5 µM | 
63 | O=C(Nc1ccncc1[NH2+][O-])NC1CCN(Cc2ccccc2)CC1 [B120] | > 79.1 µM | 
64 | Cn1ccnc1CN1CCC(N(Cc2ccccc2)C(=O)Nc2cc(F)cc(C(F)(F)F)c2)CC1 [A229] | > 28.6 µM | 
65 | CC1CN(C(=O)N2CCC(C(=O)Nc3cccc(Cl)c3)CC2)c2ccccc2O1 (stereo not shown) [C51] |  | IC50 [1]: > 67.6 µM
66 | COCCN1CCN(C(=O)c2cnn(-c3ncc(C)c(-c4cccs4)n3)c2C)CC1 [E32] |  | IC50 [3]: > 67.6 µM
67 | CCN(CC)CCN(C)C(=O)c1cnn(-c2nccc(-c3cccs3)n2)c1C(C)C [E15] |  | IC50 [3]: 32.1 µM
68 | CCCCN(C(=O)Nc1ccc(F)c(C(F)(F)F)c1)C1CCN(C(C)CCC)CC1 (stereo not shown) [A87] | 1.01 µM | 
69 | O=C(Nc1cc(F)cc(C(F)(F)F)c1)N(Cc1ccccc1)C1CCN(Cc2cncnc2)CC1 [A210] | > 21.7 µM | 

Row | Structure (SMILES) | IC50 (read-out: TR-FRET IC50) | other results
70 | O=C(Nc1ccc(CN2CCCCC2)cc1)Nc1cc(C(F)(F)F)ccc1Cl [B29] | > 50.3 µM | 
71 | CCCC(C)N1CCC(N(Cc2ccccc2)C(=O)Nc2ccc(-c3ccc(C(=O)OC)cc3)cc2)CC1 (stereo not shown) [A278] | > 69.1 µM | 
72 | C=CS(=O)(=O)Nc1cccc(CN(C(=O)Nc2cccc(C(F)(F)F)c2)C2CCN(C(C)CCC)CC2)c1 (stereo not shown) [drawing 844] | 0.165 µM | 
73 | CCCCN1CCC(N(Cc2ccccc2)C(=O)Nc2cncc(C(F)(F)F)c2)CC1 [A262] | > 63.4 µM | 
74 | CCCN1CCN(C(=O)c2cnn(-c3nccc(-c4cccs4)n3)c2COC)CC1 [E27] |  | IC50 [3]: > 16.7 µM
75 | O=C(Nc1ccc(F)c(Cl)c1)C1CCN(C(=O)c2ccc(F)cc2)CC1 [C18] |  | IC50 [1]: > 67.6 µM
76 | C#CCCCN1CCC(N(Cc2ccccc2NC(=O)/C=C/C)C(=O)Nc2cccc(C(F)(F)F)c2)CC1 [A195] | > 100 µM | 
77 | CCCC(C)N1CCC(N(CCNC(=O)CCl)C(=O)Nc2cccc(C(F)(F)F)c2)CC1 (stereo not shown) [drawing 837] | > 60 µM | 
78 | CCc1ccccc1NC(=O)N(Cc1ccco1)C1CCN(C(C)=O)CC1 [B74] | > 67.6 µM | 
79 | CSc1cccc(NC(=O)C2CCN(C(=O)c3ccc(F)cc3)CC2)c1 [C4] |  | IC50 [1]: 26.3 µM
80 | O=C(c1ccccc1F)N1CCC(c2nc3ccccc3s2)CC1 [D13] | 45.3 µM | 
81 | O=C(Nc1cc(F)cc(C(F)(F)F)c1)N(Cc1ccccc1)C1CCN(Cc2ccc(N3CCCC3)cc2)CC1 [A201] | > 19.1 µM | 
82 | CCOC(=O)Cc1ccc(NC(=O)N(Cc2ccco2)C2CCN(C(C)=O)CC2)cc1 [B75] | > 67.6 µM | 
83 | CCn1cnc(NC(=O)NC2CCN(Cc3ccccc3)CC2)n1 [B47] | > 67 µM | 
84 | CCOc1ccc(C(=O)N2CCCC(c3nc4ccccc4s3)C2)cc1 (stereo not shown) [D25] | > 67.6 µM | 
85 | CCCC(C)N1CCC(N(Cc2ccccc2)C(=O)Nc2ccc(CC)cc2)CC1 (stereo not shown) [A56] | 0.315 µM | 
86 | O=C(Nc1ccc(C(F)(F)F)cc1)C1CCN(C(=O)c2ccccc2F)CC1 [C65] |  | IC50 [1]: > 68.1 µM
87 | O=C(Nc1cc(F)cc(C(F)(F)F)c1)N(Cc1ccccc1)C1CCN(Cc2ccccc2OCc2ccccc2)CC1 [A214] | > 22.9 µM | 
88 | O=C(c1ccc(Cl)cc1)N1CCC(c2nc3ccccc3s2)CC1 [D20] | > 67.3 µM | 
89 | COc1cc(OC)cc(C(=O)N2CCC(c3nc4ccccc4s3)CC2)c1 [D22] | > 67.6 µM | 
90 | CC(=O)N1CCC(N(Cc2ccco2)C(=O)Nc2ccc(C)c(C)c2)CC1 [B69] | > 67.6 µM | 
91 | Cc1cc(NC(=O)NC2C(C)CN(Cc3ccccc3)CC2C)no1 (stereo not shown) [B121] | > 81.9 µM | 
